Assay results reported in article PMC7127208 (Bioorganic & Medicinal Chemistry, 2013).

Tests used:
Reovirus-1 = experiment: Antiviral screening, Reovirus-1 in MDCK cells; assay type: cell-based; conditions: read-out: EC50 Reovirus-1
[1] = test system: CEM, HeL, CRFK, HeLa, MDCK cells; conditions: above mentioned cell lines
Parainfluenza 3-virus = experiment: Antiviral screening, Parainfluenza 3-virus in MDCK cells; assay type: cell-based; conditions: read-out: EC50 Parainfluenza 3-virus
Feline herpes virus = experiment: Antiviral screening, Feline herpes virus in CRFK cells; assay type: cell-based; conditions: read-out: EC50 Feline herpes virus
[2] = test system: FIV (feline immunodeficiency virus); conditions: cited from earlier work
HCMV = experiment: Antiviral activity against HCMV; assay type: cell-based
Feline herpesvirus = experiment: Antiviral activity against Feline herpesvirus; assay type: cell-based
FIV = experiment: Anti-FIV activity in CrFK cells; assay type: cell-based, feline immunodeficiency virus
HSV-1 = experiment: Antiviral activity against HSV-1; assay type: cell-based
HSV-2 = experiment: Antiviral activity against HSV-2; assay type: cell-based
VV = experiment: Antiviral activity against VV; assay type: cell-based

## C[C@@H](O)CNc1nc(N)c2ncn(C[C@@H](C)O)c2n1 [compound 3, (R)-1-{6-Amino-2-[(R)-2-(hydroxypropyl)amino]-9H-purin-9-yl}propan-2-ol]
Reovirus-1
  EC50: > 100 µg/mL
[1]
  MCC, minimum cytotoxicity concentration required to cause a microscopically detectable alteration of normal cell morphology: > 100 μg/mL
Parainfluenza 3-virus
  EC50: > 100 µg/mL
Feline herpes virus
  EC50: > 100 µg/mL

## C[C@@H](O)CNc1nc(N)nc2c1ncn2C[C@@H](C)O [compound 4, (R)-1-{2-Amino-6-[((R)-2-hydroxypropyl)amino]-9H-purin-9-yl}propan-2-ol]
Reovirus-1
  EC50: > 100 µg/mL
[1]
  MCC, minimum cytotoxicity concentration required to cause a microscopically detectable alteration of normal cell morphology: > 100 μg/mL
Parainfluenza 3-virus
  EC50: > 100 µg/mL
Feline herpes virus
  EC50: > 100 µg/mL

## C[C@H](Cn1cnc2c(NCP(=O)(O)O)nc(N)nc21)OCP(=O)(O)O [compound 10, (R)-9-[2-(Phosphonomethoxy)propyl]-N^6-phosphonomethyl-2,6-diaminopurine]
Reovirus-1
  EC50: > 100 µg/mL
[1]
  MCC, minimum cytotoxicity concentration required to cause a microscopically detectable alteration of normal cell morphology: > 100 μg/mL
Parainfluenza 3-virus
  EC50: > 100 µg/mL
Feline herpes virus
  EC50: > 100 µg/mL

## C[C@H](Cn1cnc2c(N)nc(N)nc21)OCP(=O)(O)O [compound 12, (R)-9-[2-(phosphonomethoxy)propyl]-2,6-diaminopurine]
[2]
  inhibition of FIV infections in cats: very potent inhibitor

## CCCCCCCCCCCCCCCCOCCCOP(=O)([O-])CO[C@H](C)Cn1cnc2c(N)nc(N)nc21.[Na+] [compound 14, Hexadecyloxypropyl ester of (R)-9-[2-(phosphonomethoxy)propyl]-2,6-diaminopurine, sodium salt]
HCMV
  activity against HCMV: No activity
Feline herpesvirus
  activity against Feline herpesvirus: No activity
FIV; in vitro, versus (R)-PMPDAP
  fold more potent in inhibiting FIV replication compared to the parent molecule: 200 fold
HSV-1
  activity against HSV-1: No activity
HSV-2
  activity against HSV-2: No activity
VV
  activity against VV: No activity

## CCOC(=O)[C@H](C)NP(=O)(CO[C@H](C)Cn1cnc2c(N)nc(N)nc21)N[C@@H](C)C(=O)OCC [compound 15]
FIV
  fold less active against FIV compared to the parent molecule: 10 fold
